These results are taken from paper PMC6357004 (Viruses, 2018).

The structures appear in SMILES notation. pIC50: −log10 of the molar value.

In assay [1] the target is neuraminidase (NA) of recombinant influenza B/Phuket/3073/2013 WT virus (Influenza B virus, UniProt A0A1S5RAG6). The class given is biochemical, influenza B/Phuket/3073/2013 virus.
For another assay, the system named is N294S mutant. To be noted: cited from earlier work.

Chain of neuraminidase (NA) of recombinant influenza B/Phuket/3073/2013 WT virus (A0A1S5RAG6 entry or part of it, added parts left off): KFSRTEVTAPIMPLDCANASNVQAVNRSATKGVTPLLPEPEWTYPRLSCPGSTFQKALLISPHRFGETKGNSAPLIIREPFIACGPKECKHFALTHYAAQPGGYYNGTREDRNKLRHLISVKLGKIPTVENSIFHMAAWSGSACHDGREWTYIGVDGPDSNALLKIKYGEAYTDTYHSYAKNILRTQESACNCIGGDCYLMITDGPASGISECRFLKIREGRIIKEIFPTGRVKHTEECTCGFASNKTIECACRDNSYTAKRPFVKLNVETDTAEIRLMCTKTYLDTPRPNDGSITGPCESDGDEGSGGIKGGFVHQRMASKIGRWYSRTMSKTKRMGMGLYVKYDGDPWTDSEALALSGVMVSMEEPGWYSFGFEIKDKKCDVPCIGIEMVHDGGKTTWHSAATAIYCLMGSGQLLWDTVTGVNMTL

As for `CCC(CC)[C@H](NC(C)=O)[C@@H]1[C@H](O)[C@@H](C(=O)O)C[C@H]1N=C(N)N` [Peramivir, peramivir], the “Folds (fold changes according to WT virus)” value in assay [1] was 1 fold. Also, in assay [1] (mean of two independent experiments in duplicate, read-out: Neuraminidase Inhibitors IC50 values), the pIC50 was 9.13.
On to `CC(=O)N[C@H]1[C@H]([C@H](O)[C@H](O)CO)OC(C(=O)O)=C[C@@H]1N=C(N)N` [Zanamivir, zanamivir], for which the susceptibility phenotype entry in the assay on N294S mutant was “susceptible”.
